Earlier results, collected in patent US20040248933A1, “Use of 4-phenyl-substituted tetrahydroisoquinolines in the treatment of pain, migraine headaches and urinary incontinence” (priority 2002, published 2004).

Tested on: nocturnal enuresis patients
Details: patients with nocturnal enuresis following treatment

## CN(C)CCCN1c2ccccc2CCc2ccccc21 [imipramine, Imipramine]
  Enuresis cured, share of patients: over 50%
In addition to those cured
  Improvements seen, further share of patients: 15-20%
